# Measurements taken from ChEMBL document CHEMBL3763031, “Design, synthesis and biological evaluation of monobactams as antibacterial agents against gram-negative bacteria” (2016).
# What was measured:
# Klebsiella pneumoniae [1] = assay: Antibacterial activity against ESBL positive Klebsiella pneumoniae 700603 after 18 hrs by agar dilution assay; type: functional; conditions: Klebsiella pneumoniae, 700603, 18 h
# Proteus vulgaris = assay: Antibacterial activity against beta-lactamase producing Proteus vulgaris 29905 after 18 hrs by agar dilution assay; type: functional; conditions: Proteus vulgaris, 29905, 18 h
# Salmonella typhi = assay: Antibacterial activity against beta-lactamase producing Salmonella typhi H901 after 18 hrs by agar dilution assay; type: functional, Salmonella enterica subsp. enterica serovar Typhi; conditions: Salmonella enterica, H901, 18 h
# Klebsiella pneumoniae [2] = assay: Antibacterial activity against ESBL positive Klebsiella pneumoniae 09-25 after 18 hrs by agar dilution assay; type: functional; conditions: 09-25, 18 h
# Klebsiella pneumoniae [3] = assay: Antibacterial activity against ESBL negative Klebsiella pneumoniae 7 after 18 hrs by agar dilution assay; type: functional; conditions: Klebsiella pneumoniae, 7, 18 h
# Pseudomonas aeruginosa [4] = assay: Antibacterial activity against BL positive Pseudomonas aeruginosa 27853 after 18 hrs by agar dilution assay; type: functional; conditions: Pseudomonas aeruginosa, 27853, 18 h
# Citrobacter freundii = assay: Antibacterial activity against beta-lactamase producing Citrobacter freundii 43864 after 18 hrs by agar dilution assay; type: functional; conditions: Citrobacter freundii, 43864, 18 h
# Enterobacter cloacae = assay: Antibacterial activity against beta-lactamase producing Enterobacter cloacae 45301 after 18 hrs by agar dilution assay; type: functional; conditions: Enterobacter cloacae, 45301, 18 h
# Escherichia coli [5] = assay: Antibacterial activity against ESBL negative Escherichia coli 1515 after 18 hrs by agar dilution assay; type: functional; conditions: Escherichia coli, 1515, 18 h
# Klebsiella pneumoniae [6] = assay: Antibacterial activity against ESBL negative Klebsiella pneumoniae 09-8 after 18 hrs by agar dilution assay; type: functional; conditions: 09-8, 18 h
# Escherichia coli [7] = assay: Antibacterial activity against ESBL negative Escherichia coli 25922 after 18 hrs by agar dilution assay; type: functional; conditions: Escherichia coli, 25922, 18 h
# Serratia marcescens = assay: Antibacterial activity against beta-lactamase producing Serratia marcescens 41002 after 18 hrs by agar dilution assay; type: functional; conditions: Serratia marcescens, 41002, 18 h
# Pseudomonas aeruginosa [8] = assay: Antibacterial activity against BL positive Pseudomonas aeruginosa PAO1 after 18 hrs by agar dilution assay; type: functional; conditions: PAO1, 18 h
# Klebsiella aerogenes = assay: Antibacterial activity against beta-lactamase producing Enterobacter aerogenes 45102 after 18 hrs by agar dilution assay; type: functional; conditions: Klebsiella aerogenes, 45102, 18 h
# Escherichia coli [9] = assay: Selectivity ratio of MIC for Escherichia coli BL21 to MIC for acrAB and acrEF knock-out Escherichia coli BL21; type: functional
# Escherichia coli [10] = assay: Antibacterial activity against ESBL negative Escherichia coli 09-20 after 18 hrs by agar dilution assay; type: functional; conditions: 09-20, 18 h
# Pseudomonas aeruginosa [11] = assay: Antibacterial activity against BL positive Pseudomonas aeruginosa 09-14 after 18 hrs by agar dilution assay; type: functional; conditions: 09-14, 18 h
# Proteus mirabilis = assay: Antibacterial activity against beta-lactamase producing Proteus mirabilis 09-1 after 18 hrs by agar dilution assay; type: functional; conditions: 09-1, 18 h
# Klebsiella pneumoniae [12] = assay: Antibacterial activity against NDM-1 positive Klebsiella pneumoniae BAA-2146 after 18 hrs by agar dilution assay; type: functional; conditions: BAA-2146, 18 h
# Morganella morganii = assay: Antibacterial activity against beta-lactamase producing Morganella morganii 25830 after 18 hrs by agar dilution assay; type: functional; conditions: Morganella morganii, 25830, 18 h
# Escherichia coli [13] = assay: Antibacterial activity against ESBL positive Escherichia coli 09-1 after 18 hrs by agar dilution assay; type: functional; conditions: 09-1, 18 h
# Providencia rettgeri = assay: Antibacterial activity against Providencia rettgeri 31052 after 18 hrs by agar dilution assay; type: functional; conditions: Providencia rettgeri, 31052, 18 h
# Escherichia coli [14] = assay: Antibacterial activity against acrAB and acrEF knock-out Escherichia coli BL21 by microbroth dilution assay; type: functional
# Escherichia coli [15] = assay: Antibacterial activity against Escherichia coli BL21 by microbroth dilution assay; type: functional
SMILES,MIC (Klebsiella pneumoniae [1]) [µg/mL],MIC (Proteus vulgaris) [µg/mL],MIC (Salmonella typhi) [µg/mL],MIC (Klebsiella pneumoniae [2]) [µg/mL],MIC (Klebsiella pneumoniae [3]) [µg/mL],MIC (Pseudomonas aeruginosa [4]) [µg/mL],MIC (Citrobacter freundii) [µg/mL],MIC (Enterobacter cloacae) [µg/mL],MIC (Escherichia coli [5]) [µg/mL],MIC (Klebsiella pneumoniae [6]) [µg/mL],MIC (Escherichia coli [7]) [µg/mL],MIC (Serratia marcescens) [µg/mL],MIC (Pseudomonas aeruginosa [8]) [µg/mL],MIC (Klebsiella aerogenes) [µg/mL],MIC (Escherichia coli [10]) [µg/mL],MIC (Pseudomonas aeruginosa [11]) [µg/mL],MIC (Proteus mirabilis) [µg/mL],MIC (Klebsiella pneumoniae [12]) [µg/mL],MIC (Morganella morganii) [µg/mL],MIC (Escherichia coli [13]) [µg/mL],other results
CCN(CC)CC.C[C@H]1[C@H](NC(=O)/C(=N\OCc2ccc(C(=O)N/N=C/c3ccc(O)cc3O)cc2)c2csc(N)n2)C(=O)N1S(=O)(=O)O (relative stereo),64,0.5,8,> 64,2,16,8,4,0.25,32,8,4,16,4,64,16,1,> 64,0.12,64,Selectivity ratio (Escherichia coli [9]): >16; MIC (Providencia rettgeri): ≤ 0.03 µg/mL
CC1(C)[C@H](NC(=O)/C(=N\OCc2cn(CC(=O)O)nn2)c2csc(N)n2)C(=O)N1S(=O)(=O)O,> 64,0.125,> 64,32,1,> 64,2,1,32,1,2,2,> 64,4,8,> 64,2,> 64,> 64,2,MIC (Providencia rettgeri): ≤ 0.03 µg/mL
CC1(C)[C@H](NC(=O)/C(=N\OCc2ccccc2)c2csc(N)n2)C(=O)N1S(=O)(=O)O,> 64,> 64,> 64,> 64,> 64,> 64,> 64,> 64,> 64,> 64,> 64,> 64,> 64,> 64,> 64,> 64,> 64,> 64,> 64,> 64,MIC (Providencia rettgeri): > 64 µg/mL
CC1(C)[C@H](NC(=O)/C(=N\OCc2cn(CC3CC3)nn2)c2csc(N)n2)C(=O)N1S(=O)(=O)O,> 64,1,64,32,16,> 64,8,8,16,16,16,32,> 64,32,16,> 64,> 64,64,> 64,16,MIC (Providencia rettgeri): ≤ 0.03 µg/mL
CN(C)[C@@H]1C(O)=C(C(N)=O)C(=O)[C@@]2(O)C(O)=C3C(=O)c4c(O)cccc4[C@@](C)(O)[C@H]3C[C@@H]12 [TETRACYCLINE],–,–,–,–,–,–,–,–,–,–,–,–,–,–,–,–,–,–,–,–,MIC (Escherichia coli [14]): 0.25 µg/mL; MIC (Escherichia coli [15]): 0.5 µg/mL
CCN(CC)CC.C[C@H]1[C@H](NC(=O)/C(=N\OCc2ccc(C(=O)N/N=C/c3ncc[nH]3)cc2)c2csc(N)n2)C(=O)N1S(=O)(=O)O,64,0.125,1,> 64,8,32,2,1,8,8,4,4,32,2,64,32,2,> 64,0.25,64,MIC (Escherichia coli [14]): ≤ 0.06 µg/mL; MIC (Escherichia coli [15]): 1 µg/mL; MIC (Providencia rettgeri): 0.06 µg/mL
Cn1cc(CO/N=C(\C(=O)N[C@@H]2C(=O)N(S(=O)(=O)O)C2(C)C)c2csc(N)n2)nn1,> 64,0.125,> 64,8,2,> 64,4,2,4,8,4,8,> 64,8,8,> 64,2,64,0.125,2,MIC (Providencia rettgeri): 0.06 µg/mL
